Experimental data from article PMC9960331, “Antioxidant and Anticancer Potential of the New Cu(II) Complexes Bearing Imine-Phenolate Ligands with Pendant Amine N-Donor Groups” (Pharmaceutics, 2023).
Like-named read-outs stand apart in the source and are kept apart here.

Assays:
[1] = system: SW620 (colorectal adenocarcinoma); conditions: 72 h; cited from earlier work
[2] = system: MCF-7 (breast adenocarcinoma); assay: MTT cell viability assay, MCF-7; format: cell-based, human; conditions: for Concentration at which cytotoxicity starts, MCF-7: 24 h and 72 h; for IC50: Homo sapiens
Experimental: (§1) Chinese hamster lung fibroblast (V79) cells and human cell lines [MCF-7 (breast adenocarcinoma), SW620 (colorectal adenocarcinoma), and MRC-5 (normal lung fibroblast)] were obtained from the Rio de Janeiro Cell Bank (Rio de Janeiro, RJ, Brazil). The cell lines were grown in DMEM supplemented with 10% heat-inactivated FBS or RPMI-1640 supplemented with 20% FBS, 0.2 mg/mL L-glutamine, 100 IU/mL penicillin, and 100 µg/mL streptomycin. Cells were kept in tissue culture flasks at 37 °C in a humidified atmosphere containing 5% CO2 and were harvested by treatment with 0.15% trypsin −0.08% EDTA in PBS.
(§2) The cytotoxic potential of all compounds was measured by the methylthiazol tetrazolium (MTT) assay in Chinese hamster lung fibroblasts and human cell lines. Cell lines were cultured in a 96-well plate (1 × 10^4 cells/well) in complete media. V79 cells were treated for 24 h with all compounds at concentrations of 1, 10, 50 and100 µM. […] All compounds were dissolved in DMSO and added to the medium to reach the desired concentrations (0.1% of DMSO). The activity of this solvent alone was measured by a blank sample solution containing the same amount of DMSO. After the exposure period, the culture media were replaced with the addition of 100 µL serum-free media containing the 3-(4,5-dimethylthiazol-2-yl)-2,5-diphenyltetrazolium bromide) (MTT) dye (1 mg/mL), and incubated for 3 h at 37 °C After incubation, the supernatant was removed, the residual purple formazan product was solubilized in 150 µL DMSO, and its absorbance was measured at 570 nm. The assay was performed in triplicate.

MCF-7 [3] = assay: Clonogenic assay, MCF-7; format: cell-based, human; conditions: 72 h treatment
Experimental: (§3) MCF-7, MRC-5, and SW620 human cell lines were seeded in 6-well plates at a density of 300 cells per well containing 1 mL of medium. […] The cell culture medium was changed to a new medium every 2 days. Cells were washed twice with PBS and fixed with methanol for 30 min, followed by staining with 0.5% crystal violet. The assay was performed in triplicate. Colonies were manually counted, and colony survival was presented as a percentage relative to the respective negative control.

SW620 [4] = assay: Clonogenic assay, SW620; format: cell-based, human; conditions: 72 h treatment
Experimental: as §3

V79 cells = assay: MTT cell viability assay, V79 cells; format: cell-based, Chinese hamster; conditions: Cricetulus griseus, V79, 24 h; read-out: IC50 V79 cell line
Experimental: as §1
The cytotoxic potential of all compounds was measured by the methylthiazol tetrazolium (MTT) assay in Chinese hamster lung fibroblasts and human cell lines. Cell lines were cultured in a 96-well plate (1 × 10^4 cells/well) in complete media. […] The activity of this solvent alone was measured by a blank sample solution containing the same amount of DMSO. After the exposure period, the culture media were replaced with the addition of 100 µL serum-free media containing the 3-(4,5-dimethylthiazol-2-yl)-2,5-diphenyltetrazolium bromide) (MTT) dye (1 mg/mL), and incubated for 3 h at 37 °C After incubation, the supernatant was removed, the residual purple formazan product was solubilized in 150 µL DMSO, and its absorbance was measured at 570 nm. […]

SW620 [5] = assay: Alkaline comet assay, SW620; format: cell-based, human; conditions: for Damage Índex (DI) ± SD, SW620: 3 h
Experimental: (§4) For genotoxicity assays, 1.0 × 10^4 cells were seeded on twenty-four-well plates and incubated for 24 h. […] Each dose was evaluated by three independent experiments. The alkaline comet assay was performed as described by Singh et al.. Following treatment, cells were trypsinized and resuspended in a complete medium. Slides were prepared with 20 μL of cellular suspension and were dissolved in 0.75% low melting-point agarose. Slides were immersed in cold lysis buffer (2.5 M NaCl, 100 mM EDTA, 10 mM Tris, 1% Triton X-100, 10% DMSO, pH 10) for at least 1 h. Slides were placed in an electrophoresis chamber with cold alkaline buffer (300 mM NaOH and 1 mM de EDTA, pH > 13) to unwind the DNA. Electrophoresis was performed at 0.7 V/cm, 300 mA for 30 min at 4 °C. Slides were then neutralized with Tris–HCl buffer (pH 7.5) for 15 min and stored at room temperature. Slides were stained with silver staining protocol. The gels were then left to dry overnight at room temperature before being analyzed. From two replicate slides, 100 cells were selected and analyzed for DNA migration. Migration of DNA fragments was determined according to comet class as described by Azqueta: class 0, intact nuclei, without tail; class 1, nuclei with tail less than the diameter of the nucleus; class 2, tail size varying between one and two times the diameter of the nucleus; class 3, tail size varying between two and three times the diameter of the nucleus; and class 4, tail size more than three times the diameter of the nucleus but with the head and tail of the comet still distinguishable. The DI ranges from 0 (100 completely undamaged cells × 0) to 400 (100 cells with maximum damage × 4).

[6] = DPPH radical scavenging assay; format: biochemical; conditions: for Antioxidant ability in the DPPH radical capture assay: test doses 1-200 µM
Source text: (§5) Both colorimetric assays are being used to estimate the radical scavenging capacity of organic and inorganic compounds [71, 72]. When DPPH reacts with an antioxidant compound, its free radical property is lost, and its color changes from violet to yellow. In the presence of an antioxidant, the ABTS radical, which has a strong absorption band at 734 nm, will be scavenged, and the reaction mixture will turn from blue to green. The results are expressed as a percentage of inhibition of DPPH radical or ABTS^+ radical when compared to samples from the control group (DMSO) without the compounds/standard (0% of radical inhibition). The experiment was repeated three times at each concentration.
DPPH assay: To determine the 1,1-diphenylpicrylhydrazyl (DPPH) radical scavenging activity, different concentrations of compounds (1, 5, 10, 50, 100, and 200 μM) were mixed with a methanolic solution of 0.1 mM DPPH radical for 30 min at 30 °C in the dark. The absorbance of the mixture was measured spectrophotometrically at 517 nm. The coloration change of the DPPH ethanolic solution from deep purple to yellow indicates the presence of antioxidants and then the free radical scavenging effect of these compounds. The ascorbic acid at 1, 10, 100, and 200 µM was used as a positive control to determine the maximal decrease in the DPPH absorbance. The percentage of DPPH radical scavenging activity was calculated by the following equation:% DPPH radical scavenging activity = {(A0 − A1)/A0} × 100 where A0 is the absorbance of the control, and A1 is the absorbance of the compounds/standard.

MRC-5 [7] = assay: Alkaline comet assay, MRC-5; format: cell-based, human; conditions: for Damage Índex (DI) ± SD, MRC-5: 3 h
Experimental: as §4

[8] = system: SW620 (colorectal adenocarcinoma); assay: MTT cell viability assay, SW620; format: cell-based, human; conditions: for Concentration at which cytotoxicity starts, SW620: 24 h and 72 h; for IC50: Homo sapiens
Experimental: as §1, §2

MCF-7 [9] = assay: Alkaline comet assay, MCF-7; format: cell-based, human; conditions: for Damage Índex (DI) ± SD, MCF-7: 3 h
Experimental: as §4

[10] = system: MRC-5 (normal lung fibroblast); assay: MTT cell viability assay, MRC-5; format: cell-based, human; conditions: for Concentration at which cytotoxicity starts, MRC-5: 24 h and 72 h; for IC50: Homo sapiens
Experimental: as §1, §2

[11] = ABTS radical cation scavenging assay; format: biochemical
Source text: as §5
The radical cation ABTS was previously generated with sodium persulfate in the presence of potassium phosphate buffer. Briefly, the ABTS solution diluted in a phosphate buffer saline pH 7.4 was mixed with an aliquot of the compound for 30 min at room temperature in the dark. The ascorbic acid at 1, 10, 100, and 200 µM was used as a positive control to determine the maximal decrease in the ABTS^+ absorbance. The color reaction was measured at 730 nm and the results were expressed as a percentage (%) of the control. The ABTS radical scavenging capacity was calculated by the following equation: % ABTS^+ radical scavenging activity = {(A0 − A1)/A0} × 100 where A0 indicates the absorbance of the blank and A1 indicates the absorbance in the presence of the test sample.

[12] = system: MCF-7 (breast adenocarcinoma); parameters: method as in PMID 36592511; conditions: 72 h; cited from earlier work
MRC-5 [13] = assay: Clonogenic assay, MRC-5; format: cell-based, human; conditions: 72 h treatment; general statement covers MCF-7, SW620 and MRC-5
Experimental: as §3

## O=c1[nH]cc(F)c(=O)[nH]1 [5-Fluorouracil]
[1]
  IC50: 4 µM

## CC(C)(C)c1cc(/C=N/CCNc2ccccc2)c(O)c(C(C)(C)C)c1 [1a]
[2]
  Concentration at which cytotoxicity starts, MCF-7: 10 µM
[2]; MCF7, 24 h
  IC50: 30.5 ± 4.4 µM
[2]; MCF7, 72 h
  IC50: 28.6 µM
MCF-7 [3]
  Inhibition of colony survival, MCF-7 compared with MRC-5: not selective
SW620 [4]
  Inhibition of colony survival, SW620 compared with MRC-5: not selective
V79 cells
  IC50: 23 µM
SW620 [5]
  Concentrations that increase damage index (DI), SW620: 50 µM and 100 µM
SW620 [5]; 1 μM
  Damage Índex (DI) ± SD, SW620: 16.7 ± 2.5
SW620 [5]; 10 μM
  Damage Índex (DI) ± SD, SW620: 21.3 ± 6.7
SW620 [5]; 50 μM
  Damage Índex (DI) ± SD, SW620: 107.0 ± 7.2
SW620 [5]; 100 μM
  Damage Índex (DI) ± SD, SW620: 212.3 ± 2.5
[6]
  Antioxidant ability in the DPPH radical capture assay: inability to be antioxidants
MRC-5 [7]
  Concentrations that increase damage index (DI), MRC-5: 10 to 100 µM
MRC-5 [7]; 1 μM
  Damage Índex (DI) ± SD, MRC-5: 19.3 ± 3.9
MRC-5 [7]; 10 μM
  Damage Índex (DI) ± SD, MRC-5: 39.7 ± 9.5
MRC-5 [7]; 50 μM
  Damage Índex (DI) ± SD, MRC-5: 121.3 ± 10.0
MRC-5 [7]; 100 μM
  Damage Índex (DI) ± SD, MRC-5: 200.3 ± 22.0
[8]
  Concentration at which cytotoxicity starts, SW620: 10 µM
[8]; SW-620, 24 h
  IC50: 27.6 ± 1.2 µM
[8]; SW-620, 72 h
  IC50: 16.4 µM
MCF-7 [9]
  Concentrations that increase damage index (DI), MCF-7: 10 to 100 µM
MCF-7 [9]; 1 μM
  Damage Índex (DI) ± SD, MCF-7: 14.7 ± 3.2
MCF-7 [9]; 10 μM
  Damage Índex (DI) ± SD, MCF-7: 34.3 ± 4.2
MCF-7 [9]; 50 μM
  Damage Índex (DI) ± SD, MCF-7: 100.7 ± 2.9
MCF-7 [9]; 100 μM
  Damage Índex (DI) ± SD, MCF-7: 154.7 ± 7.2
[10]
  Concentration at which cytotoxicity starts, MRC-5: 10 µM
[10]; MRC5, 24 h
  IC50: 14.7 ± 1.1 µM
[10]; MRC5, 72 h
  IC50: 17.1 µM
[11]
  Concentration from which ABTS+ radical scavenging activity is present: 5 µM
  Imax (% of maximal inhibition), ABTS+: up to 87%
[11]; concentration to decrease 50% of ABTS+ radical formation
  IC50: 7.5 ± 2.2 µM

## N.N.[Cl][Pt][Cl] [cisplatin]
[12]
  IC50: 12.7 ± 0.1 µM

## CC(C)(C)c1cc(/C=N/c2cccc3cccnc23)c(O)c(C(C)(C)C)c1 [1b, [6-(C9H6N-8-(N=CH))-2,4-di-tert-butyl-(OHC6H2)]]
[2]
  Concentration at which cytotoxicity starts, MCF-7: 10 µM
[2]; MCF7, 24 h
  IC50: 111 ± 9.5 µM
[2]; MCF7, 72 h
  IC50: 44.5 µM
SW620 [4]
  Inhibition of colony survival, SW620 compared with MRC-5: more potent inhibitory effect on the SW620 cells than on MRC-5 cells
V79 cells
  IC50: 69 ± 9 µM
SW620 [5]
  Concentrations that increase damage index (DI), SW620: ≥ 10 µM
SW620 [5]; 1 μM
  Damage Índex (DI) ± SD, SW620: 10.0 ± 1.0
SW620 [5]; 10 μM
  Damage Índex (DI) ± SD, SW620: 34.7 ± 7.4
SW620 [5]; 50 μM
  Damage Índex (DI) ± SD, SW620: 120.0 ± 5.3
SW620 [5]; 100 μM
  Damage Índex (DI) ± SD, SW620: 236.0 ± 8.2
[6]
  Antioxidant ability in the DPPH radical capture assay: inability to be antioxidants
MRC-5 [7]
  Concentrations that increase damage index (DI), MRC-5: 50 µM and 100 µM
MRC-5 [7]; 1 μM
  Damage Índex (DI) ± SD, MRC-5: 16.3 ± 2.5
MRC-5 [7]; 10 μM
  Damage Índex (DI) ± SD, MRC-5: 20.0 ± 5.2
MRC-5 [7]; 50 μM
  Damage Índex (DI) ± SD, MRC-5: 101.0 ± 5.0
MRC-5 [7]; 100 μM
  Damage Índex (DI) ± SD, MRC-5: 135.0 ± 6.2
[8]
  Concentration at which cytotoxicity starts, SW620: 1 µM
[8]; SW-620, 24 h
  IC50: 41.9 ± 9.7 µM
[8]; SW-620, 72 h
  IC50: 10.5 µM
MRC-5 [13]
  Inhibition of cell proliferation at the highest treatment concentrations tested (colony survival): not statistically significant
MCF-7 [9]
  Concentrations that increase damage index (DI), MCF-7: 50 µM and 100 µM
MCF-7 [9]; 1 μM
  Damage Índex (DI) ± SD, MCF-7: 16.0 ± 4.0
MCF-7 [9]; 10 μM
  Damage Índex (DI) ± SD, MCF-7: 22.3 ± 6.4
MCF-7 [9]; 50 μM
  Damage Índex (DI) ± SD, MCF-7: 52.7 ± 9.5
MCF-7 [9]; 100 μM
  Damage Índex (DI) ± SD, MCF-7: 102.0 ± 6.0
[10]
  Concentration at which cytotoxicity starts, MRC-5: 10 µM
[10]; MRC5, 24 h
  IC50: 63.4 ± 5.5 µM
[10]; MRC5, 72 h
  IC50: 15.5 µM
[11]; doses 1-200 µM
  ABTS+ radical scavenging activity: inactive at all doses

## O=C1O[C@H]([C@@H](O)CO)C(O)=C1O [Ascorbic acid, ascorbic acid, reference compound]
[6]; concentration to decrease 50% of DPPH radical formation
  IC50: 17 µM
